Laboratory results taken from US6362369B1, “Phthalic acid diamide derivatives fluorine-containing aniline compounds as starting material, agricultural and horticultural insecticides, and a method for application of the insecticides” (Nihon Nohyaku Co., Ltd., priority 1997, dated 2002).

Key:
Format in all cases: in vivo
[1] = system: diamondback moth (Plutella xylostella); assay: Insecticidal effect on diamondback moth (Test Example 1); conditions: mortality judged according to the criterion shown in Test Example 1
In short: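 Read-out was mortality from hatched-insect counts taken 6 days after the egg-bearing cabbage seedling was immersed, graded by set criteria. Seedlings were air-dried and kept at 25° C after treatment. Groups of 10 insects, in triplicate.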

[2] = system: common cutworm (Spodoptera Litura); assay: Insecticidal effect on common cutworm (Test Example 2); conditions: 500 ppm, cabbage leaf dip, second-instar larvae, eight days after inoculation, 25° C.
In short: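 Mortality was scored 8 days post-inoculation, using three groups of 10 second-instar larvae kept at 25 °C in closed 9 cm dishes on air-dried treated material. The insecticidal effect was graded from calculated mortality by a set criterion.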

[3] = system: rice leafroller (Cnaphalocrocis medinalis); assay: Insecticidal effect on rice leafroller (Test Example 3); conditions: 500 ppm, rice lamina dip, third-instar larvae, four days after inoculation, 25° C., humidity 70%
In short: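 Groups of 10 third-instar larvae, in triplicate, are placed on air-dried lamina resting on wet filter paper. Incubation runs four days at 25° C with 70% humidity before survivors and dead are tallied.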

Row | SMILES | Insecticidal effect on diamondback moth (Test Example 1), judged grade [1] | Insecticidal effect on common cutworm (Test Example 2), judged grade [2] | Insecticidal effect on rice leafroller (Test Example 3), judged grade [3]
1 | Cc1c(Cl)cccc1NC(=O)c1cccc([N+](=O)[O-])c1C(=O)NC(C)C [compound 663] | A (100) | A (100) | D (79-50)
2 | Cc1ccc(Cl)cc1NC(=O)c1cccc([N+](=O)[O-])c1C(=O)NC(C)C [compound 665] | A (100) | A (100) | B (99-90)
3 | CCc1cc(Cl)ccc1NC(=O)c1cccc([N+](=O)[O-])c1C(=O)NC(C)C [compound 667] | A (100) | A (100) | A (100)
4 | Cc1c(Cl)ccc(NC(=O)c2cccc([N+](=O)[O-])c2C(=O)NC(C)C)c1C [compound 669] | A (100) | D (79-50) | A (100)
5 | Cc1cc(I)ccc1NC(=O)c1cccc([N+](=O)[O-])c1C(=O)NC(C)C [compound 673] | A (100) | D (79-50) | D (79-50)
6 | Cc1c(F)cccc1NC(=O)c1cccc([N+](=O)[O-])c1C(=O)NC(C)C [compound 674] | A (100) | D (79-50) | A (100)
7 | Cc1cc(F)ccc1NC(=O)c1cccc([N+](=O)[O-])c1C(=O)NC(C)C [compound 675] | A (100) | A (100) | A (100)
8 | Cc1ccc(F)cc1NC(=O)c1cccc([N+](=O)[O-])c1C(=O)NC(C)C [compound 676] | A (100) | C (89-80) | A (100)
9 | Cc1c(NC(=O)c2cccc([N+](=O)[O-])c2C(=O)NC(C)C)cccc1C(F)(F)F [compound 681] | A (100) | A (100) | A (100)
10 | Cc1cc(C(F)(F)C(F)(F)F)ccc1NC(=O)c1cccc([N+](=O)[O-])c1C(=O)NC(C)C [compound 683] | A (100) | A (100) | A (100)
11 | Cc1cc(C(F)(F)C(F)(F)C(F)(F)F)ccc1NC(=O)c1cccc([N+](=O)[O-])c1C(=O)NC(C)C [compound 684] | A (100) | A (100) | A (100)
12 | Cc1cc(C(F)(F)C(F)(F)C(F)(F)C(F)(F)F)ccc1NC(=O)c1cccc([N+](=O)[O-])c1C(=O)NC(C)C [compound 686] | A (100) | A (100) | A (100)
13 | COc1cccc(NC(=O)c2cccc([N+](=O)[O-])c2C(=O)NC(C)C)c1C [compound 687] | A (100) | D (79-50) | D (79-50)
14 | COc1ccc(NC(=O)c2cccc([N+](=O)[O-])c2C(=O)NC(C)C)c(C)c1C [compound 689] | A (100) | D (79-50) | A (100)
15 | COc1cc(NC(=O)c2cccc([N+](=O)[O-])c2C(=O)NC(C)C)cc(C(F)(F)F)c1 [compound 691] | A (100) | D (79-50) | C (89-80)
16 | Cc1c(NC(=O)c2cccc([N+](=O)[O-])c2C(=O)NC(C)C)cccc1OC(F)F [compound 695] | A (100) | A (100) | A (100)
17 | Cc1cc(OC(F)F)ccc1NC(=O)c1cccc([N+](=O)[O-])c1C(=O)NC(C)C [compound 696, N^1-(4-difluoromethoxy-2-methylphenyl)-N^2-isopropyl-3-nitrophthalic acid diamide] | A (100) | A (100) | A (100)

Row | SMILES | Insecticidal effect on diamondback moth (Test Example 1), judged grade [1] | Insecticidal effect on common cutworm (Test Example 2), judged grade [2] | Insecticidal effect on rice leafroller (Test Example 3), judged grade [3]
18 | Cc1cc(OC(F)(F)C(F)(F)Br)ccc1NC(=O)c1cccc([N+](=O)[O-])c1C(=O)NC(C)C [compound 698] | A (100) | B (99-90) | A (100)
19 | Cc1cc(OCC(F)(F)C(F)F)ccc1NC(=O)c1cccc([N+](=O)[O-])c1C(=O)NC(C)C [compound 699] | A (100) | A (100) | D (79-50)
20 | Cc1cc(OC(F)(F)C(F)(Br)C(F)(F)F)ccc1NC(=O)c1cccc([N+](=O)[O-])c1C(=O)NC(C)C (stereo not drawn) [compound 700] | A (100) | A (100) | A (100)
21 | Cc1cc(OCC(F)OC(F)(F)F)ccc1NC(=O)c1cccc([N+](=O)[O-])c1C(=O)NC(C)C (stereo not drawn) [compound 701] | A (100) | A (100) | A (100)
22 | CC(C)NC(=O)c1c(C(=O)Nc2ccc(C(F)(C(F)(F)F)C(F)(F)F)cc2Cl)cccc1[N+](=O)[O-] [compound 703] | A (100) | A (100) | A (100)
23 | CC(C)NC(=O)c1c(C(=O)Nc2ccc(OC(F)(F)F)cc2Br)cccc1[N+](=O)[O-] [compound 705] | A (100) | D (79-50) | A (100)
24 | Cc1cc(OC(F)(F)F)ccc1NC(=O)c1cccc([N+](=O)[O-])c1C(=O)NC(C)C [compound 710] | A (100) | C (89-80) | A (100)
25 | Cc1cc(OC(F)(F)Br)ccc1NC(=O)c1cccc([N+](=O)[O-])c1C(=O)NC(C)C [compound 711] | A (100) | C (89-80) | A (100)
26 | Cc1cc(OC(F)(F)C(F)F)ccc1NC(=O)c1cccc([N+](=O)[O-])c1C(=O)NC(C)C [compound 712] | A (100) | A (100) | A (100)
27 | Cc1c(NC(=O)c2cccc([N+](=O)[O-])c2C(=O)NC(C)C)cccc1OC(F)(F)C(F)Cl (stereo not drawn) [compound 713] | A (100) | B (99-90) | D (79-50)
28 | Cc1cc(OC(F)(F)C(F)Cl)ccc1NC(=O)c1cccc([N+](=O)[O-])c1C(=O)NC(C)C (stereo not drawn) [compound 714] | A (100) | A (100) | A (100)
29 | Cc1cc(OC(F)(F)C(F)(Cl)Cl)ccc1NC(=O)c1cccc([N+](=O)[O-])c1C(=O)NC(C)C [compound 715] | A (100) | A (100) | A (100)
30 | Cc1cc(OC(F)(F)C(F)C(F)(F)F)ccc1NC(=O)c1cccc([N+](=O)[O-])c1C(=O)NC(C)C (stereo not drawn) [compound 716] | A (100) | A (100) | A (100)
31 | Cc1cc(Sc2ccc(Cl)cc2)ccc1NC(=O)c1cccc([N+](=O)[O-])c1C(=O)NC(C)C [compound 727] | A (100) | B (99-90) | A (100)
32 | CC(C)NC(=O)c1cccc([N+](=O)[O-])c1C(=O)Nc1ccc(C(F)(F)C(F)(F)C(F)(F)F)cc1Cl [compound 741] | A (100) | A (100) | A (100)
33 | CCc1cccc(C(=O)NC(C)C)c1C(=O)Nc1ccc(Cl)cc1C [compound 753] | A (100) | A (100) | D (79-50)
